Measured values as given in publication PMC9781916, “Antipsychotic- and Anxiolytic-like Properties of a Multimodal Compound JJGW08 in Rodents” (International Journal of Molecular Sciences, 2022).

Columns and labels:
human D2 receptor = target: T1, human D2 receptor (Homo sapiens, UniProt P14416); experiment: Functional assay (aequorin, calcium mobilization) in CHO-K1 cells, D2 receptor; format: cell-based
T1 construct: host or cells: CHO-K1
Protocol: Tested and reference compounds were dissolved in dimethyl sulfoxide (DMSO) at a concentration of 10 mM. Serial dilutions were prepared in a 96-well microplate in assay buffer, and 8 to 10 concentrations were tested. […] The assay was executed according to the previously described protocol [45]. After thawing, cells were transferred to assay buffer (DMEM/HAM’s F12 with 0.1% protease-free BSA) and centrifuged. The cell pellet was resuspended in assay buffer, and coelenterazine h was added at final concentrations of 5 µM. The cell suspension was incubated at 16 °C (or 21 °C), protected from light with constant agitation for 16 h (or 4 h), and then diluted with assay buffer to the concentration of 100,000 cells/mL (or 250,000 cells/mL). After 1 h of incubation, 50 µL of the cell’s suspension was dispensed using automatic injectors built into the radiometric and luminescence plate counter MicroBeta2 LumiJET (PerkinElmer, Waltham, NA, USA) into white opaque 96-well microplates preloaded with test compounds. Immediate light emission generated following calcium mobilization was recorded for 30 s. In antagonist mode, after 25–30 min of incubation, the reference agonist was added to the above assay mix, and light emission was re-recorded. […] IC50 and EC50 values were calculated.

5-HT1A receptors = system: 5-HT1A receptors; set-up: method as in doi:10.1016/j.molstruc.2022.134585; conditions: cited from earlier work
rats = experiment: Open field test after MK-801 administration in rats (MK-801-induced hyperlocomotion); format: in vivo; conditions: doses 1–30 mg/kg ip, MK-801 0.3 mg/kg ip
Protocol: Figure 4 The effect of JJGW08 and clozapine on MK-801-induced hyperlocomotion in rats. After the habituation period (30 min, 24 h before the test), locomotor activity was measured individually for each animal in the special apparatus. The walked distance (cm) was monitored at 10-min intervals for 30 min, using a computerized system that tracked the animals’ movement and behavior. JJGW08 and clozapine were administered intraperitoneally (ip) 30 or 60 min before the test, respectively, while MK-801 (0.3 mg/kg) was administered ip 15 min before the start of the experiment. The control group received 0.9% NaCl solution (ip) (or 1% Tween (ip) for clozapine) and MK-801 (0.3 mg/kg, ip). Values are expressed as mean ± SD, n = 7–8 rats per group. Statistical analysis: one-way ANOVA (Newman–Keuls post hoc) * p < 0.05, ** p < 0.01, *** p < 0.001.
The experiment was evaluated according to the method described earlier. It was performed in a soundproof chamber with a 30-min habituation period 24 h before the procedure. The open field apparatus consisted of four black, octagonal, stainless steel arenas (diameter: 80 cm) with 30 cm high walls. Each arena was divided into a peripheral and central sector. The peripheral sector was defined as the region within 20 cm from the walls. The approximate light intensity was 15 lx in the central point of the arena and 4 lx close to its walls.
Individual rats were placed in the central part of the open field and allowed to explore the whole arena for 30 min under dim light (approximately 10 lx) and continuous white noise (65 dB). Forward locomotion (cm/30 min) was registered in 10-min intervals for 30 min and analyzed with the aid of a computerized video tracking system (Videomot, TSE, Bad Homburg, Germany). The arenas were cleaned between tests with 20% (v/v) alcohol and allowed to dry.
The tested compound was administered ip 30 min before the experiment at the dose range of 0.3–30.0 mg/kg, and MK-801 (0.3 mg/kg,) was administered ip 15 min before the procedure. […]

mice [1] = experiment: Amphetamine-induced hyperlocomotion test in mice; format: in vivo; conditions: doses 0.3–2.5 mg/kg ip, amphetamine 2.5 mg/kg sc
Protocol: Locomotor activity was recorded in actometers separately for each mouse. After 30 min of adaptation, the number of crossings of photo beams was measured during 60 min. […] MK-801 (0.2 mg/kg, ip) was administered 15 min before the experiment, while amphetamine (2.5 mg/kg) was administered subcutaneously (sc) 30 min before the experiment. […] Values are expressed as means ± SD, n = 8–10 mice per group. Statistical analysis: one-way ANOVA (Newman–Keuls post hoc), * p < 0.05, ** p < 0.01, *** p < 0.001.
The test was performed according to the method described by Carlsson et al.. The mobility of the animals was measured in actometers, i.e., in plastic Opto M3 cages (22 × 12 × 13 cm) connected to a computer with MultiDevice Software v.1.30 (Columbus Instruments, Columbus, OH, USA). The experimental cages were equipped with infrared sources on one side and sensors receiving the emitted rays on the other side of the cage. The crossing of each beam of infrared rays was classified as motor activity. The animals were placed individually in experimental cages immediately after administration of the tested compound, 30 min before the start of the test, to adapt to the new conditions and exclude the occurrence of hyperactivity caused by the change of the environment. Spontaneous locomotor activity was measured every 5 min for 60 min. Mice received two injections: of the tested compound or reference substance (30 min before the test, ip) and of amphetamine (2.5 mg/kg, 30 min before the test, sc) or MK-801 (0.2 mg/kg, 15 min before the test, ip). Control groups received an injection of saline and amphetamine or MK-801, or two injections of saline, respectively. Olanzapine was used as a reference compound.

mice [2] = experiment: Marble burying test in mice; format: in vivo
Protocol: Figure 3 The effect of JJGW08 and aripiprazole on the number of buried marbles by mice. Mice were placed individually in cages with a 5 cm bedding layer, where 20 glass balls were placed. The number of buried marbles after 30 min of the test was counted. JJGW08 was administered intraperitoneally (ip) 30 min before the test. The control group received 0.9% NaCl solution (ip) or 1% Tween (ip) for aripiprazole. Values are expressed as means ± SD in the case of one-way ANOVA (aripiprazole) or median with interquartile range in the case of Kruskal–Wallis test (JJGW08), n = 8–10 mice per group. Statistical analysis: one-way ANOVA (Newman–Keuls post hoc), and Kruskal–Wallis test (Dunn post hoc), * p < 0.05, ** p < 0.01, *** p < 0.001.
The test was conducted according to the method described by Broekkamp et al. with minor modifications. Mice were placed individually in plastic cages, identical to their home cages, that contained a layer of bedding and 20 glass balls (1.6 cm in diameter) arranged in a pattern 4 × 5. After 30 min of the experiment, the mice were removed from the cages, and the number of balls buried to at least 2/3 of their size was counted.

D2 receptors = system: D2 receptors; set-up: method as in doi:10.1016/j.molstruc.2022.134585; conditions: cited from earlier work
mice [3] = experiment: Four-plate test in mice; format: in vivo
Protocol: Figure 2 The effect of JJGW08 on the number of punished crossings in the four-plate test. Mice were placed in the apparatus, and after a 15 s adaptation period, each mouse crossing from one plate to another was punished with an electric shock. JJGW08 was administered intraperitoneally (ip) 30 min before the test. The control group received 0.9% NaCl solution (ip). Values are expressed as means ± SD, n = 8–10 mice per group. Statistical analysis: one-way ANOVA (Newman–Keuls post hoc), ** p < 0.01.
The four-plate test was performed on mice according to the previously described method. Mice were placed individually in the four-plate apparatus (Panlab, Barcelona, Spain). After a 15 s habituation period, each mouse that crossed from one plate to another (two limbs on one plate, two on another) was punished by an electric shock (0.8 mA, 0.5 s). The number of punished crossings was calculated during the 60 s of the test.

[4] = D2, antagonist mode, 30 nM apomorphine as reference agonist

T1 sequence (P14416 whole entry): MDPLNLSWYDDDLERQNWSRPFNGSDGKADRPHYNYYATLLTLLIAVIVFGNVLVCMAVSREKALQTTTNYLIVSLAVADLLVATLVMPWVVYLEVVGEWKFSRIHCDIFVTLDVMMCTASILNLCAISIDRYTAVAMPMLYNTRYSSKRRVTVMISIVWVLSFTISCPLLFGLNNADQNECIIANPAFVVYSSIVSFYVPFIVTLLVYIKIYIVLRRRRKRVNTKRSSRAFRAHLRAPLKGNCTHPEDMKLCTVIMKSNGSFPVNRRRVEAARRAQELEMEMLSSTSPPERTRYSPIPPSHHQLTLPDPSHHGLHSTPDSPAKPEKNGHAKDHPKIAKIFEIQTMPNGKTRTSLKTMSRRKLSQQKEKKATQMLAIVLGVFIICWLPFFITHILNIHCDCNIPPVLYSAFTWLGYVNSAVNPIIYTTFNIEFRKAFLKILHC

**Q.** For `COc1ccccc1N1CCN(CCCCCOc2ccccc2C(N)=O)CC1.Cl` [JJGW08, 2-{5-[4-(2-metoksyfenylo)piperazin-1-ylo]pentoxy}benzamide hydrochloride], which “Agonist Mode Emax%” value (human D2 receptor; D2, agonist mode) is on record?
**A.** 13%

**Q.** And the “Antagonist Mode Emax%” value (human D2 receptor; [4])?
**A.** 0%

**Q.** And the “Antagonist Mode pIC50 ± Range” value (human D2 receptor; [4])?
**A.** 7.9 ± 0.0

**Q.** And the Kb (human D2 receptor; D2, antagonist mode, Cheng equation)?
**A.** 2 nM

**Q.** What about the “antagonistic properties (in words)” value (human D2 receptor; D2 functional assay) of the same molecule?
**A.** strong antagonistic properties

**Q.** And the “affinity (in words)” value (5-HT1A receptors)?
**A.** high affinity

**Q.** And the “reduction of MK-801-induced hyperlocomotion in the open field” value (rats)?
**A.** 36–82%

**Q.** And the “reduction of amphetamine-induced hyperlocomotion” value (mice [1])?
**A.** 52–82%

**Q.** What about the “reduction of the number of buried marbles” value (mice [2]; 1.25 mg/kg ip) of the same molecule?
**A.** 65%

**Q.** And the “reduction of the number of buried marbles” value (mice [2]; 2.5 mg/kg ip)?
**A.** 84%

**Q.** What about the “affinity (in words)” value (D2 receptors) of the same molecule?
**A.** high affinity

**Q.** What about the “increase in the number of punished crossings” value (mice [3]; 0.3 mg/kg ip) of the same molecule?
**A.** 54%

**Q.** And the “increase in the number of punished crossings” value (mice [3]; 0.625 mg/kg ip)?
**A.** 49%
